Results taken from ChEMBL document CHEMBL4152259, “Benzoxazinone-containing 3,5-dimethylisoxazole derivatives as BET bromodomain inhibitors for treatment of castration-resistant prostate cancer” (Eur J Med Chem, 2018).
Activity calls are given as the source filed them. The rule behind the calls is not given here.

Assays:
Mus musculus = assay: Toxicity in C.B-17/IcrHsd-Prkdc scid mouse xenografted with human 22Rv1 cells assessed as body weight loss at 50 mg/kg, ip administered 5 times per week measured during compound dosing; type: organism-based; conditions: in vivo
CWR22R [1] = assay: Antimigratory activity against human 22Rv1 cells assessed as inhibition of wound closure at 1 uM after 48 hrs by bright field microscopic method; type: functional, cell-based
Homo sapiens [2] = species: Homo sapiens; assay: Inhibition of BET bromodomain in human 22Rv1 cells assessed as reduction in TMPRSS2 mRNA level at 1 uM after 48 hrs by qPCR assay; type: cell-based
CWR22R [3] = assay: Antitumor activity against human 22Rv1 cells xenografted in C.B-17/IcrHsd-Prkdc scid mouse assessed as tumor growth inhibition at 50 mg/kg, ip administered 5 times per week relative to control; type: functional; conditions: 22Rv1, ip, read-out: TGI
Homo sapiens [4] = species: Homo sapiens; assay: Inhibition of BET bromodomain in human 22Rv1 cells assessed as full length AR protein level at 16 uM after 48 hrs by Western blot assay (reference value: 1); type: cell-based
[5] = AUC (0 to infinity) in Sprague-Dawley rat at 10 mg/kg, po administered as single dose; type: ADME, organism-based; set-up: dose 10 mg/kg, route oral, time infinity; conditions: in vivo
VCaP [6] = assay: Inhibition of BET bromodomain in human VCaP cells assessed as reduction in full length AR mRNA level at 1 uM after 48 hrs by qPCR assay; type: cell-based
VCaP [7] = assay: Inhibition of BET bromodomain in human VCaP cells assessed as reduction in ERG mRNA level at 1 uM after 48 hrs by qPCR assay; type: cell-based
Homo sapiens [8] = species: Homo sapiens; assay: Inhibition of BET bromodomain in human 22Rv1 cells assessed as reduction in ERG mRNA level at 1 uM after 48 hrs by qPCR assay; type: cell-based
[9] = Tmax in Sprague-Dawley rat at 10 mg/kg, po administered as single dose; type: ADME, organism-based; conditions: in vivo
Homo sapiens [10] = species: Homo sapiens; assay: Inhibition of BET bromodomain in human LNCAP cells assessed as reduction in TMPRSS2 mRNA level at 1 uM after 48 hrs by qPCR assay; type: cell-based
Homo sapiens [11] = species: Homo sapiens; assay: Inhibition of BET bromodomain in human LNCAP cells harboring pPSA-Luc/pRenialla-Luc assessed as reduction in PSA mRNA level after 24 hrs by luciferase reporter gene assay; type: cell-based
Homo sapiens [12] = species: Homo sapiens; assay: Inhibition of BET bromodomain in human 22Rv1 cells assessed as AR-varient protein level at 1 uM after 48 hrs by Western blot assay (reference value: 1); type: cell-based
[13] = Oral bioavailability in Sprague-Dawley rat at 10 mg/kg administered as single dose; type: ADME, organism-based; conditions: in vivo
[14] = Clearance in Sprague-Dawley rat at 2 mg/kg, iv administered as single dose; type: ADME, organism-based; conditions: in vivo
[15] = Volume of distribution at steady state in Sprague-Dawley rat at 2 mg/kg, iv administered as single dose; type: ADME, organism-based; conditions: in vivo, read-out: Vdss
[16] = Half life in Sprague-Dawley rat at 10 mg/kg, po administered as single dose; type: ADME, organism-based; conditions: in vivo
VCaP [17] = assay: Inhibition of BET bromodomain in human VCaP cells assessed as reduction in c-Myc mRNA level at 1 uM after 48 hrs by qPCR assay; type: cell-based
Homo sapiens [18] = species: Homo sapiens; assay: Inhibition of BET bromodomain in human 22Rv1 cells assessed as full length AR protein level at 1 uM after 48 hrs by Western blot assay (reference value: 1); type: cell-based
[19] = Half life in Sprague-Dawley rat at 2 mg/kg, iv administered as single dose; type: ADME, organism-based; conditions: in vivo
Homo sapiens [20] = species: Homo sapiens; assay: Inhibition of BET bromodomain in human 22Rv1 cells assessed as reduction in c-Myc mRNA level at 1 uM after 48 hrs by qPCR assay; type: cell-based
CWR22R [21] = assay: Antimigratory activity against human 22Rv1 cells at 1 uM after 48 hrs by transwell assay relative to control; type: functional
Homo sapiens [22] = species: Homo sapiens; assay: Selectivity ratio of IC50 for inhibition of His6-tagged human CREBBP (R1081 to G1197 residues) expressed in Escherichia coli BL21(DE3) by AlphaScreen assay to IC50 for inhibition of His6-tagged human BRD4 bromodomain-1 (N44 to E168 residues) expressed in Escherichia coli BL21(DE3) by AlphaScreen assay
[23] = AUC (0 to infinity) in Sprague-Dawley rat at 2 mg/kg, iv administered as single dose; type: ADME, organism-based; set-up: dose 2 mg/kg, route intravenous, time infinity; conditions: in vivo
Homo sapiens [24] = species: Homo sapiens; assay: Inhibition of BET bromodomain in human LNCAP cells assessed as reduction in full length AR mRNA level at 1 uM after 48 hrs by qPCR assay; type: cell-based
LNCaP C4-2B = assay: Inhibition of colony formation in human C4-2B cells after 14 days by crystal violet staining based assay; type: functional, cell-based
Homo sapiens [25] = species: Homo sapiens; assay: Inhibition of BET bromodomain in human LNCAP cells assessed as reduction in c-Myc mRNA level at 1 uM after 48 hrs by qPCR assay; type: cell-based
LNCaP = assay: Antiproliferative activity against human LNCAP cells; type: functional, cell-based

SMILES: Cc1noc(C)c1-c1ccc2c(c1)O[C@H](CC1CC1)C(=O)N2
- Activity (Mus musculus): Non-Toxic
- inhibition (CWR22R [1]): Active
- inhibition (Homo sapiens [2]): Active
- inhibition in vivo at 50 mg/kg (CWR22R [3]): 70%
- fold change (FC) (Homo sapiens [4]): 0.09
- AUC(0-inf) [5]: 1460 ng·h/mL
- inhibition (VCaP [6]): Active
- inhibition (VCaP [7]): Active
- inhibition (Homo sapiens [8]): Active
- Tmax [9]: 30 min
- inhibition (Homo sapiens [10]): Active
- inhibition (Homo sapiens [11]): Dose-dependent effect
- fold change (FC) (Homo sapiens [12]): 0.83
- bioavailability [13]: 29.3%
- clearance [14]: 33.9 mL/min/kg
- Vd [15]: 1.6 L/kg
- half-life [16]: 42 min
- inhibition (VCaP [17]): Active
- fold change (FC) (Homo sapiens [18]): 0.43
- half-life [19]: 48 min
- inhibition (Homo sapiens [20]): Active
- Activity (CWR22R [21]): 27%
- Ratio IC50 (Homo sapiens [22]): 25
- AUC(0-inf) [23]: 997 ng·h/mL
- inhibition (Homo sapiens [24]): Active
- inhibition (LNCaP C4-2B): Dose-dependent effect
- inhibition (Homo sapiens [25]): Active

SMILES: Cc1sc2c(c1C)C(c1ccc(Cl)cc1)=N[C@@H](CC(=O)OC(C)(C)C)c1nnc(C)n1-2
- IC50 (LNCaP): 110 nM
